Experimental data from US20230212549A1, “COMPOUNDS COMPRISING A […] LIGAND AND USE THEREOF” (priority 2021, published 2023).
Numbered stars: 1 amine (or outer) side, 2 acyl side, 3 side chain; on linkers, the order of the positions; unused ones are H or OH. Bridge positions count the residues as written; N and C are the ends. Square brackets hold non-standard residues; d marks the D form. Peptide text beside a SMILES is read from it. * marks the point of attachment. X35 = CC1(C)C(=CC=CC=CC2=[N+](CCCCS(=O)(=O)[O-])c3ccccc3C2(C)C)N(CCCCCC(=O)N2CCN(Cc3cc(C[*:1])cc(C[*:2])c3)CC2)c2ccccc21; NH(1-deoxy-D-glucityl) = OC[C@@H](O)[C@@H](O)[C@H](O)[C@@H](O)CN*; X3 = NCCNCC(CNCCN)C(=O)NCCCOCCOCCOCCCN*; mXylylene = c1cc(C[*:1])cc(C[*:2])c1; Suc = O=C(CCC(=O)[*:2])[*:1]; Nle = CCCC[C@H](N)C(=O)O; Hexanoyl = CCCCCC(=O)*; Nlys = NCCCCNCC(=O)O

Columns and labels:
[1] = molecular target: T1, FAP-expressing human WI-38 fibroblasts (Homo sapiens, UniProt Q12884); assay: Competitive FACS binding assay
T1 construct: FAP-expressing human WI-38 fibroblasts (ECACC) were cultured in EMEM; host or cells: WI-38 human fibroblasts
Experimental: Cells were analyzed in an Attune NxT flow cytometer. […] […].
Cells were analyzed in an Attune NxT flow cytometer. […]

Human recombinant FAP = Human recombinant FAP (Homo sapiens, UniProt Q12884); assay: FRET-based FAP protease activity assay; format: biochemical; set-up: purchased R&D systems 3715-SE
[2] = pIC50 Category (Activity), FRET-based FAP protease activity assay, recombinant human FAP, 37° C.
[3] = pIC50 Category (Activity), FRET-peptide substrate, 37° C.

Human recombinant FAP, sequence (Q12884 whole entry): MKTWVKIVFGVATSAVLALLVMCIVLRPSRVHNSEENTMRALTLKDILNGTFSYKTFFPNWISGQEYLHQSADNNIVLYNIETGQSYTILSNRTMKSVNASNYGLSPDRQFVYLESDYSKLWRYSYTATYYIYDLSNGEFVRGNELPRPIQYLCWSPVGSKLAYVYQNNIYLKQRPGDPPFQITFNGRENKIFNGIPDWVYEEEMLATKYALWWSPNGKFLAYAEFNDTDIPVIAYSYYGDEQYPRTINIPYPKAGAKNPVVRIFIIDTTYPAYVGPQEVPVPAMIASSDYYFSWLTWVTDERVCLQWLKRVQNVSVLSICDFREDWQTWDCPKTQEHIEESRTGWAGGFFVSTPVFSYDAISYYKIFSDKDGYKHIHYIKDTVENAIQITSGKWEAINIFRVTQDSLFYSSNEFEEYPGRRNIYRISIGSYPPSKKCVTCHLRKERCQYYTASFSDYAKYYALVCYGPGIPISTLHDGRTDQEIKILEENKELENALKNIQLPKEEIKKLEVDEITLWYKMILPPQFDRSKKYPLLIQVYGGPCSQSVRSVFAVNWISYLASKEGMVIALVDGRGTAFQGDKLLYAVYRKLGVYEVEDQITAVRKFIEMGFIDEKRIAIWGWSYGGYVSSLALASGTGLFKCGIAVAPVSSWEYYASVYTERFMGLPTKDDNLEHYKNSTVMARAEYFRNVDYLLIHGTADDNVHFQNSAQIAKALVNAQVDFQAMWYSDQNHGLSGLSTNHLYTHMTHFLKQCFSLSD
T1 sequence (Q12884 whole entry): as above

Molecule | IC50 [1] [nM] | IC50 (Human recombinant FAP; [2]) [nM] | IC50 (Human recombinant FAP; [3]) [nM] | further results
Hex-[Cys(3MeBn)-Pro-Pro-Thr-Glu-Phe-Cys]-Asp-Omp-Arg-NH2 [3BP-3302] | – | – | – | pIC50 Category (FACS) ([1]; competition with 3 nM Cy5-labeled compound, WI-38 fibroblasts, 4° C., 1 hour): A (pIC50 category A stands for pIC50 values >8.0); pIC50 Category (activity) (Human recombinant FAP; FRET-based FAP protease activity assay, recombinant human FAP, 37° C.): A (pIC50 category A stands for pIC50 values >8.0)
CSCC[C@H](NC(C)=O)C(=O)N[C@@H]1CSCc2cccc(c2)CSC[C@@H](C(=O)N[C@@H](CC(=O)O)C(=O)N[C@@H](Cc2c[nH]cn2)C(=O)N[C@@H](Cc2ccccc2)C(=O)N[C@@H](CCCNC(=N)N)C(=O)N[C@@H](CC(=O)O)C(N)=O)NC(=O)[C@H](Cc2ccccc2)NC(=O)[C@H](CCC(=O)O)NC(=O)[C@H]([C@@H](C)O)NC(=O)[C@@H]2CCCN2C(=O)[C@@H]2CCCN2C1=O [3BP-3175, Ac-Met-[cys(3MeBn)-Pro-Pro-Thr-Glu-Phe-Cys]-Asp-His-Phe-Arg-Asp-NH2] (Ac-M[dC]PPTEFCDHFRD-NH2; linker 2-8 via mXylylene) | < 10 | < 10 | – | –
C=CCCOC(=O)N[C@H]1CSCc2cc(CSCCNC(=O)CN3CCN(CC(=O)O)CCN(CC(=O)O)CCN(CC(=O)O)CC3)cc(c2)CSC[C@@H](C(=O)O)NC(=O)[C@H](Cc2ccccc2)NC(=O)[C@H](CCC(N)=O)NC(=O)[C@H]([C@@H](C)O)NC(=O)[C@@H]2CCCN2C(=O)[C@@H]2CCCN2C1=O [3BP-3916, Bulloc-[Cys(tMeBn(DOTA-AET))-Pro-Pro-Thr-Gln-Phe-Cys]-OH] | < 10 | – | 10 to 79.4 | –
C[C@@H](O)[C@@H]1NC(=O)[C@@H]2CCCN2C(=O)[C@@H]2CCCN2C(=O)[C@@H](NC(=O)CCCCCN)CSCc2cccc(c2)CSC[C@@H](C(N)=O)NC(=O)[C@H](Cc2ccccc2)NC(=O)[C@H](CCC(N)=O)NC1=O [3BP-3759, H-Ahx-[Cys(3MeBn)-Pro-Pro-Thr-Gln-Phe-Cys]-NH2] | > 1000 | > 1000 | – | –
CCCCCC(=O)N[C@H]1CSCc2cccc(c2)CSC[C@@H](C(N)=O)NC(=O)[C@H](Cc2ccccc2)NC(=O)[C@H](CCC(N)=O)NC(=O)[C@H]([C@@H](C)O)NC(=O)[C@@H]2CCCN2C(=O)CN(CCCCN)C1=O [3BP-3747, Hex-[Cys(3MeBn)-Nlys-Pro-Thr-Gln-Phe-Cys]-NH2] (Hexanoyl-C[Nlys]PTQFC-NH2; linker 1-7 via mXylylene) | > 1000 | > 1000 | – | –
CCCCCC(=O)N[C@H]1CSCc2cc(CSCCNC(=O)CN3CCN(CC(N)=O)CCN(CC(N)=O)CCN(CC(N)=O)CC3)cc(c2)CSCC(C(=O)O)NC(=O)[C@H](Cc2ccccc2)NC(=O)[C@H](CCC(N)=O)NC(=O)[C@H]([C@@H](C)O)NC(=O)[C@@H]2CCCN2C(=O)[C@@H]2CCCN2C1=O (stereo partly drawn) [3BP-5323, Hex-[Cys(tMeBn(DOTAM-AET))-Pro-Pro-Thr-Gln-Phe-Cys]-OH] | – | – | – | IC50 (Human recombinant FAP; pIC50 Category (activity), Recombinant human FAP): < 10 nM
CCCCCC(=O)N[C@H]1CSCc2cc(CSCCNC(=O)CCCCCN3C(=CC=CC=CC4=[N+](CCCCS(=O)(=O)[O-])c5ccccc5C4(C)C)C(C)(C)c4ccccc43)cc(c2)CSC[C@@H](C(=O)O)NC(=O)[C@H](Cc2ccccc2)NC(=O)[C@H](CCC(N)=O)NC(=O)[C@H]([C@@H](C)O)NC(=O)[C@@H]2CCCN2C(=O)[C@@H]2CCCN2C1=O [3BP-3694, Hex-[Cys(tMeBn(Cy5SO3-AET))-Pro-Pro-Thr-Gln-Phe-Cys]-OH] | – | 100 to 794 | – | –
CCCCCC(=O)N[C@H]1CSCc2cc(CSCCNC(=O)COc3ccc4nc3CN(CC(=O)O)CCN(CC(=O)O)CCN(CC(=O)O)C4)cc(c2)CSC[C@@H](C(=O)O)NC(=O)[C@H](Cc2ccccc2)NC(=O)[C@H](CCC(N)=O)NC(=O)[C@H]([C@@H](C)O)NC(=O)[C@@H]2CCCN2C(=O)[C@@H]2CCCN2C1=O [3BP-5363, Hex-[C(tMeBn(LaAcPCTA-AET))-PPTQFC]-OH] | – | – | – | pIC50 Category (activity) (Human recombinant FAP; Recombinant human FAP): B (category B for pIC50 values between 7.1 and 8.0)
CCCCCC(=O)N[C@H]1CSCc2cc(cc(CN3CCN(C(=O)CCCCCN4C(=CC=CC=CC5=[N+](CCCCS(=O)(=O)[O-])c6ccccc6C5(C)C)C(C)(C)c5ccccc54)CC3)c2)CSC[C@@H](C(=O)N[C@@H](CC(=O)O)C(N)=O)NC(=O)[C@H](Cc2ccccc2)NC(=O)[C@H](CCC(N)=O)NC(=O)[C@H]([C@@H](C)O)NC(=O)[C@@H]2CCCN2C(=O)[C@@H]2CCCN2C1=O [3BP-3693, Hex-[Cys(tMeBn(Cy5SO3-PP))-Pro-Pro-Thr-Gln-Phe-Cys]-Asp-NH2] (Hexanoyl-CPPTQFCD-NH2; linker 1-7 via X35) | – | 10 to 79.4 | – | –

More lines, main results first:

IC50 [1] [nM] | IC50 (Human recombinant FAP; [2]) [nM] | IC50 (Human recombinant FAP; [3]) [nM] | Molecule | further results
10 to 79.4 | – | 10 to 79.4 | CCCC[C@H](NC(=O)CCC(=O)NCCCOCCOCCOCCCNC(=O)CN1CCN(CC(=O)O)CCN(CC(=O)O)CCN(CC(=O)O)CC1)C(=O)N[C@H]1CSCc2cc(CSCCNC(=O)CN3CCN(CC(=O)O)CCN(CC(=O)O)CCN(CC(=O)O)CC3)cc(c2)CSC[C@@H](C(=O)N[C@@H](CC(=O)O)C(=O)NCCCOCCOCCOCCCNC(=O)CCC(=O)N[C@@H](CCCCNC(=O)CN2CCN(CC(=O)O)CCN(CC(=O)O)CCN(CC(=O)O)CC2)C(N)=O)NC(=O)[C@H](Cc2ccccc2)NC(=O)[C@H](CCC(N)=O)NC(=O)[C@H]([C@@H](C)O)NC(=O)[C@@H]2CCCN2C(=O)[C@@H]2CCCN2C1=O [3BP-4392, DOTA-Ttds-Nle-[Cys(tMeBn(DOTA-AET))-Pro-Pro-Thr-Gln-Phe-Cys]-Asp-Ttds-Lys(DOTA)-NH2] | –
10 to 79.4 | – | 10 to 79.4 | C[C@@H](O)[C@@H]1NC(=O)[C@@H]2CCCN2C(=O)[C@@H]2CCCN2C(=O)[C@@H](NC(=O)NC2CCCC2)CSCc2cc(CSCCNC(=O)CN3CCN(CC(=O)O)CCN(CC(=O)O)CCN(CC(=O)O)CC3)cc(c2)CSC[C@@H](C(=O)O)NC(=O)[C@H](Cc2ccccc2)NC(=O)[C@H](CCC(N)=O)NC1=O [3BP-3917, Cpentyl-CAyl-[Cys(tMeBn(DOTA-AET))-Pro-Pro-Thr-Gln-Phe-Cys]-OH] | –
10 to 79.4 | – | 10 to 79.4 | CCCC[C@H](NC(=O)CCC(=O)NCCCOCCOCCOCCCNC(=O)CN1CCN(CC(=O)O)CCN(CC(=O)O)CCN(CC(=O)O)CC1)C(=O)N[C@H]1CSCc2cc(CSCCNC(=O)CN3CCN(CC(=O)O)CCN(CC(=O)O)CCN(CC(=O)O)CC3)cc(c2)CSC[C@@H](C(=O)O)NC(=O)[C@H](Cc2ccccc2)NC(=O)[C@H](CCC(N)=O)NC(=O)[C@H]([C@@H](C)O)NC(=O)[C@@H]2CCCN2C(=O)[C@@H]2CCCN2C1=O [3BP-4386, DOTA-Ttds-Nle-[Cys(tMeBn(DOTA-AET))-Pro-Pro-Thr-Gln-Phe-Cys]-OH] | –
> 1000 | – | > 1000 | CCCC[C@H](NC(=O)[C@H](CCC(=O)NC[C@H](O)[C@@H](O)[C@H](O)[C@H](O)CO)NC(=O)CCC(=O)NCCCOCCOCCOCCCNC(=O)C(CNCCN)CNCCN)C(=O)N[C@H]1CSCc2cccc(c2)CSC[C@@H](C(=O)O)NC(=O)[C@H](Cc2ccccc2)NC(=O)[C@H](CCC(=O)O)NC(=O)[C@H]([C@@H](C)O)NC(=O)[C@@H]2CCCN2C(=O)[C@@H]2CCCN2C1=O [3BP-4231, N4Ac-Ttds-Glu(AGLU′)-Nle-[Cys-(3MeBn)-Pro-Pro-Thr-Glu-Phe-Cys]-OH] ({X3-Suc}-E(NH(1-deoxy-D-glucityl))[Nle]CPPTEFC-OH; linker 3-9 via mXylylene) | –
10 to 79.4 | – | 10 to 79.4 | CCCC[C@H](NC(=O)CCC(=O)NCCCOCCOCCOCCCNC(=O)CC[C@H](NC(=O)C(CNCCN)CNCCN)C(=O)O)C(=O)N[C@H]1CSCc2cccc(c2)CSC[C@@H](C(=O)O)NC(=O)[C@H](Cc2ccccc2)NC(=O)[C@H](CCC(N)=O)NC(=O)[C@H]([C@@H](C)O)NC(=O)[C@@H]2CCCN2C(=O)[C@@H]2CCCN2C1=O [3BP-4245, N4Ac-gGlu-Ttds-Nle-[Cys-(3MeBn)-Pro-Pro-Thr-Gln-Phe-Cys]-OH] | –
